Assay [1] concerns TNFα production in LPS-stimulated human monocytes. As to the kind of experiment: Cot Monocyte TNFα Cell Based Assay. The following applies: Homo sapiens, Monocyte, read-out: EC50 TNF. The procedure, abridged:
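Percent-of-control values derive from TR-FRET ratios of TNFα in spun-down media, referenced to unstimulated and LPS-stimulated wells. Exposure: 1 h compound preincubation, then 50 pg/ml LPS for 4 h, both at 37 °C, with 0.5% final DMSO.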

Assay [2] concerns the target T1, human Cot catalytic domain (30-397 amino acids) (Homo sapiens, UniProt P41279).
T1 construct: Purified recombinant human Cot catalytic domain (30-397 amino acids) was purchased from Cama Biosciences; purchased Cama Biosciences (so in the source)
As to the kind of experiment: High Throughput Cot Biochemical Assay (KinEASE TR-FRET). The following applies: read-out: IC50 HTRF. The procedure, abridged: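 Phosphorylation of 1 μM XL665-STK3 peptide by 5 nM Cot catalytic domain was measured by time-resolved FRET using a europium […] antibody. ATP was 400 μM; buffer was 10 mM MOPS pH 7.0 with Mg2+ and DTT.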

The mark [3] stands for this setting: TNFα in LPS-stimulated human monocytes.
Setting [4] is: Cot KinEASE TR-FRET (HTRF) biochemical assay, 400 μM ATP.
The mark [5] stands for this setting: Cot biochemical HTRF (KinEASE TR-FRET) assay.
The mark [6] stands for this setting: LPS-stimulated human monocytes, TNFα TR-FRET.
The mark [7] stands for this setting: Cot KinEASE TR-FRET, 400 μM ATP.

Like-named read-outs stand apart in the source and are kept apart here.

T1 sequence (P41279 30-397): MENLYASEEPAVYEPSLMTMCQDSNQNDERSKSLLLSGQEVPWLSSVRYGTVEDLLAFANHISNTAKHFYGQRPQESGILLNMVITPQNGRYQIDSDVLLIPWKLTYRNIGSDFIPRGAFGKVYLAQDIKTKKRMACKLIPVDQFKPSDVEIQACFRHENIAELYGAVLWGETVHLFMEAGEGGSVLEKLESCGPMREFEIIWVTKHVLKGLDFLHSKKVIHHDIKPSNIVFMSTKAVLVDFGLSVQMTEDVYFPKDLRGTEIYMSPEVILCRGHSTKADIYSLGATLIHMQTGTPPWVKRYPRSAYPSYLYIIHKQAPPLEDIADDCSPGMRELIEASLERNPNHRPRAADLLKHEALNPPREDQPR

`[2H][C@](Nc1cc(Cl)c2ncc(C#N)c(NCC(C)(C)C)c2c1)(c1cccc(C#N)c1)c1cn(-c2cccnc2)nn1` [Example 327, (S)-8-chloro-6-(((3-cyanophenyl)(1-(pyridin-3-yl)-1H-1,2,3-triazo1-4-yl)methyl-d)amino)-4-(neopentylamino)quinoline-3-carbonitrile]: the EC50 in assay [1] (setting [3]) stood at 166 nM. Further, in assay [2] (setting [4]), the IC50 was determined as 4 nM.

Regarding `[2H][C@](Nc1cc(Cl)c2ncc(C#N)c(NC3(C)CCC3)c2c1)(c1ccc(F)cc1)c1cn(C2CC2)nn1` [Example 219, (S)-8-chloro-6-(((1-cyclopropyl-1H-1,2,3-triazol-4-yl)(4-fluorophenyl)methyl-d)amino)-4-((1-methylcyclobutyl)amino)quinoline-3-carbonitrile], the EC50 in assay [1] (setting [3]) was found to be 4930 nM. Also, the IC50 in assay [2] (setting [4]) turned out to be 534 nM.

Take `N#Cc1cnc2c(Cl)cc(N[C@@H](c3ccc(F)cc3)c3c[nH]nn3)cc2c1Nc1cncc(F)c1` [Example 353, (S)-8-chloro-6-(((4-fluorophenyl)(1H-1,2,3-triazol-4-yl)methyl)amino)-4-((5-fluoropyridin-3-yl)amino)quinoline-3-carbonitrile]: in assay [1] (setting [3]), the EC50 came out at 3180 nM. In addition, the half-inhibitory concentration (IC50) in assay [2] (setting [4]) came to 104 nM.

With `C[C@@H](Nc1c(C#N)cnc2c(Cl)cc(N[C@@H](c3ccccc3)c3cn(C4CCN(C(C)(C)C)CC4)nn3)cc12)C(C)(C)C` [Example 485, 6-(((S)-(1-(1-(tert-butyl)piperidin-4-yl)-1H-1,2,3-triazol-4-yl)(phenyl)methyl)amino)-8-chloro-4-(((R)-3,3-dimethylbutan-2-yl)amino) quinoline-3-carbonitrile], the EC50 in assay [1] (setting [3]) turned out to be 7240 nM. Also, the IC50 in assay [2] (setting [5]) is 306 nM.

As for `CC(C)(C)N1CCC(n2cc([C@@H](Nc3cc(Cl)c4ncc(C#N)c(Nc5ccc(Cl)c(Cl)c5F)c4c3)c3ccc(Cl)cc3)nn2)CC1` [Example 731, (S)-6-(((1-(1-(tert-butyl)piperidin-4-yl)-1H-1,2,3-triazol-4-yl)(4-chlorophenyl)methyl)amino)-8-chloro-4-((3,4-dichloro-2-fluorophenyl)amino)quinoline-3-carbonitrile], the EC50 in assay [1] (setting [3]) was determined as 4450 nM. In addition, the IC50 in assay [2] (setting [5]) is 78 nM.

In the case of `[2H][C@](Nc1cc(Cl)c2ncc(C#N)c(NC3[C@H]4COC[C@@H]34)c2c1)(c1ccc(F)cc1)c1cn(C2CC2)nn1` (stereo partly drawn) [Example 142, 4-(((1R,5S)-3-oxabicyclo[3.1.0]hexan-6-yl)amino)-8-chloro-6-(((S)-(1-cyclopropyl-1H-1,2,3-triazol-4-yl)(4-fluorophenyl)methyl-d)amino)quinoline-3-carbonitrile], the EC50 in assay [1] (setting [3]) was 77 nM. In assay [2] (setting [4]), the half-inhibitory concentration (IC50) came to 8 nM.

`Cc1c(-c2ncco2)cccc1[C@H](Nc1cc(Cl)c2ncc(C#N)c(NCC(C)(C)C)c2c1)c1cn(C2(C(F)F)CC2)nn1` [Example 1051, (S)-8-chloro-6-(((1-(1-(difluoromethyl)cyclopropyl)-1H-1,2,3-triazol-4-yl)(2-methyl-3-(oxazol-2-yl)phenyl)methyl)amino)-4-(neopentylamino)quinoline-3-carbonitrile]: in assay [1] (setting [6]), the EC50 was 163 nM. In assay [2] (setting [7]), the IC50 was 4 nM.

Take `N#Cc1cnc2c(Cl)cc(N[C@@H](c3ccc(F)cc3)c3cn(-c4ccccc4F)nn3)cc2c1Nc1cnc(F)c(F)c1` [Example 337, (S)-8-chloro-4-((5,6-difluoropyridin-3-yl)amino)-6-(((4-fluorophenyl) (1-(2-fluorophenyl)-1H-1,2,3-triazol-4-yl)methyl)amino)quinoline-3-carbonitrile]: the EC50 in assay [1] (setting [3]) was 674 nM. The IC50 in assay [2] (setting [4]) is 49 nM.

`[2H][C@](Nc1cc(Cl)c2ncc(C#N)c(NCC(C)(C)C)c2c1)(c1cccc(C#N)c1)c1c[nH]nn1` [Example 324, (S)-8-chloro-6-(((3-cyanophenyl)(1H-1,2,3-triazol-4-yl)methyl-d)amino)-4-(neopentylamino) quinoline-3-carbonitrile]: the EC50 in assay [1] (setting [3]) was 450 nM. Besides, in assay [2] (setting [4]), the concentration for half-maximal inhibition (IC50) stood at 4 nM.

As for `Cc1c(-c2ccccn2)cccc1[C@H](Nc1cc(C#N)c2ncc(C#N)c(NCC(C)(C)C)c2c1)c1cn(C2(C(F)(F)F)CC2)nn1` [Example 1144, (S)-6-(((2-methyl-3-(pyridin-2-yl)phenyl)(1-(1-(trifluoromethyl)cyclopropyl)-1H-1,2,3-triazol-4-yl)methyl)amino)-4-(neopentylamino)quinoline-3,8-dicarbonitrile], in assay [1] (setting [6]), the EC50 amounted to 379 nM. In addition, the IC50 in assay [2] (setting [7]) amounted to 11 nM.

On to `[2H]C(Nc1cc(Cl)c2ncc(C#N)c(Nc3cnc(F)c(F)c3)c2c1)(c1ccc(F)cc1)c1cn(C2CC2)cn1` (stereo not shown) [Example 355, 8-chloro-6-(((1-cyclopropyl-1H-imidazol-4-yl)(4-fluorophenyl)methyl-d)amino)-4-((5,6-difluoropyridin-3-yl)amino)quinoline-3-carbonitrile], for which, in assay [1] (setting [3]), the EC50 came out at 4660 nM. Besides, the IC50 in assay [2] (setting [4]) came out at 121 nM.

For `CC[C@H](C)Nc1c(C#N)cnc2c(Cl)cc(N[C@@H](c3ccccc3)c3cn(C4CCN(C(C)(C)C)CC4)nn3)cc12` [Example 587, 4-(((S)-sec-butyl)amino)-6-(((S)-(1-(1-(tert-butyl)piperidin-4-yl)-1H-1,2,3-triazol-4-yl)(phenyl)methyl)amino)-8-chloroquinoline-3-carbonitrile], the EC50 in assay [1] (setting [3]) turned out to be 3900 nM. For the same compound, in assay [2] (setting [5]), the half-inhibitory concentration (IC50) came out at 144 nM.

With `N#Cc1ccccc1[C@H](Nc1cc(Cl)c2ncc(C#N)c(Nc3cnc(F)c(F)c3)c2c1)c1c[nH]nn1` [Example 328, (S)-8-chloro-6-(((2-cyanophenyl)(1H-1,2,3-triazol-4-yl)methyl)amino)-4-((5,6-difluoropyridin-3-yl)amino)quinoline-3-carbonitrile], the EC50 in assay [1] (setting [3]) came to 1240 nM. Moreover, the IC50 in assay [2] (setting [4]) amounted to 24 nM.

As for `CC(C)C(C)(C)CNc1c(C#N)cnc2c(Cl)cc(N[C@@H](c3ccc(F)cc3)c3c[nH]nn3)cc12` [Example 399, (S)-8-chloro-6-(((4-fluorophenyl)(1H-1,2,3-triazol-4-yl)methyl)amino)-4-((2,2,3-trimethylbutyl)amino) quinoline-3-carbonitrile], the half-maximal effective concentration (EC50) in assay [1] (setting [3]) was found to be 891 nM. The IC50 in assay [2] (setting [4]) stood at 38 nM.

Regarding `Cn1cc([C@@H](Nc2cc(Cl)c3ncc(C#N)c(Nc4ccc(F)c(Cl)c4)c3c2)c2cccc(CN3CCCC3)c2)nn1` [Example 841, (S)-8-chloro-4-((3-chloro-4-fluorophenyl)amino)-6-(((1-methyl-1H-1,2,3-triazol-4-yl)(3-(pyrrolidin-1-ylmethyl)phenyl)methyl)amino) quinoline-3-carbonitrile], the EC50 in assay [1] (setting [3]) amounted to 141 nM. The IC50 in assay [2] (setting [5]) was 8 nM.

For `CC(C)(C)CNc1c(C#N)cnc2c(Cl)cc(N[C@@H](c3ccccc3)c3cn(C4(C(F)(F)F)CC4)nn3)cc12` [Example 1059, (S)-8-chloro-4-(neopentylamino)-6-((phenyl(1-(1-(trifluoromethyl)cyclopropyl)-1H-1,2,3-triazol-4-yl)methyl)amino)quinoline-3-carbonitrile], in assay [1] (setting [6]), the EC50 came out at 553 nM. Besides, the IC50 in assay [2] (setting [7]) stood at 75 nM.

`[2H][C@](Nc1cc(Cl)c2ncc(C#N)c(NC(CC#N)c3ccccc3)c2c1)(c1ccc(F)cc1)c1cn(-c2cccnc2)nn1` (stereo partly drawn) [Example 267, 8-chloro-4-((2-cyano-1-phenylethyl)amino)-6-(((S)-(4-fluorophenyl)(1-(pyridin-3-yl)-1H-1,2,3-triazol-4-yl)methyl-d)amino)quinoline-3-carbonitrile]: the EC50 in assay [1] (setting [3]) was 194 nM. Besides, in assay [2] (setting [4]), the IC50 turned out to be 7 nM.

(Values after US10316017B2, “COT modulators and methods of use thereof” (Gilead Sciences, Inc., priority 2015, dated 2019).)
